Consider 49 compounds from patent US20240389587A1, “COMPOSITIONS AND METHODS FOR CONTROLLING PHYTOPATHOGENIC INFECTIONS” (INSTITUT NATIONAL DE RECHERCHE POUR L'AGRICULTURE, …, priority 2021, published 2024).

T1 sequence (P32361 19-1115): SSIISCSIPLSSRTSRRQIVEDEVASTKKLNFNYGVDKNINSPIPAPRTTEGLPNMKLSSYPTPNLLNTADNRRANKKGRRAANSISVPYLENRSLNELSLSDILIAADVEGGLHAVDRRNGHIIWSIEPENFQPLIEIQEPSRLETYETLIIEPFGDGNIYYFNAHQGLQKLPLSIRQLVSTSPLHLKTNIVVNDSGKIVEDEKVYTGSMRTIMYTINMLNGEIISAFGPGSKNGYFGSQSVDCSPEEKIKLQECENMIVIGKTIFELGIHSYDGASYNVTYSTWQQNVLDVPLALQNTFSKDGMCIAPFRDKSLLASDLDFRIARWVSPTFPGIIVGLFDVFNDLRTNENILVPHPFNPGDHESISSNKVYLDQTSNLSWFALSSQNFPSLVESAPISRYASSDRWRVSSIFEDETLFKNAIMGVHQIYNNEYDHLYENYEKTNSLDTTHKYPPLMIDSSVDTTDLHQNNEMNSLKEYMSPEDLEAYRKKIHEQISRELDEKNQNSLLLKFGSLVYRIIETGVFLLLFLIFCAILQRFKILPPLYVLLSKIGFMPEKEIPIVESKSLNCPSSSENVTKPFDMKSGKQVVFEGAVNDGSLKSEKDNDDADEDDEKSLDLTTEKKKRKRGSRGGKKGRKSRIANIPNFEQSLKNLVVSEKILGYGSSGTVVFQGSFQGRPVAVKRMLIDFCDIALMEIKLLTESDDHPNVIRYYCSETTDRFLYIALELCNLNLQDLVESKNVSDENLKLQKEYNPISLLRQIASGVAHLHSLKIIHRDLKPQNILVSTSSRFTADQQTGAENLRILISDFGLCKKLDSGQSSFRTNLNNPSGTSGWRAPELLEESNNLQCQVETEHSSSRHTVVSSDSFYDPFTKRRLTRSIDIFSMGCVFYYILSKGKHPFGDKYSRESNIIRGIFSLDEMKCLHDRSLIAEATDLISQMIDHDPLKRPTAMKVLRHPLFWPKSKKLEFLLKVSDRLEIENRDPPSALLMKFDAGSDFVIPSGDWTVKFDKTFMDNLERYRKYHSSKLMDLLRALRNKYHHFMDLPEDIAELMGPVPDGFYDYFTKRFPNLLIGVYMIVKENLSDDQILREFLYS

One assay has as its target T1, IRE1 (Saccharomyces cerevisiae, UniProt P32361).
T1 construct: endogenous in cells
The experiment in a line: IRE1 inhibitors screening (inhibition of transcriptional activator HAC1 in yeast). In kind it is cell-based.
Conditions: not given
An excerpt:
A series of natural products were screened for their capacity to inhibit the UPR pathway via the inhibition of IRE1 in an in vitro screening test, based inhibition of the transcriptional activator HAC1 in Saccharomyces cerevisiae (the IRE1 protein is the ‘sole effector of the UPR pathway in fungi).
With `O=C(/C=C/c1ccc(O)c(O)c1)OC/C=C/c1ccccc1` [Cinnamyl caffeate, [(E)-3-phenylprop-2-enyl] (E)-3-(3,4-dihydroxyphenyl)prop-2-enoate], the “IRE1 inhibition (in words)” value was “inhibit IRE1 in a micromolar scale”. Regarding `C=C(CO)C(=O)O[C@H]1CC(=C)[C@@H]2C[C@H](O)C(=C)[C@@H]2[C@H]2OC(=O)C(=C)[C@@H]21` [Cynaropicrin], the “μ (% activation) ± σ” value is reported as 105.6 ± 0.7%. By IC50 is commonly meant the midpoint of a concentration-inhibition curve. `O=C1C=CC(=O)c2c(O)cccc21` [Juglone, 5-hydroxy-1,4-naphthalenedione]: the IC50 is 12.8 µM and the “IRE1 inhibition (in words)” value is “inhibit IRE1 in a micromolar scale”.

`CC(Cc1ccccc1)NCCCc1ccccc1` (centres unmarked) [N-(3-Phenyl-n-propyl)-1-phenyl-2-aminopropane]: the “μ (% activation) ± σ” value was 102.6 ± 1%. For `Oc1cc(O)c2c(c1)O[C@H](c1ccc(O)c(O)c1)[C@H](O)[C@H]2c1c(O)cc(O)c2c1O[C@H](c1ccc(O)c(O)c1)[C@H](O)C2` [Procyanidin B2], the “μ (% activation) ± σ” value came out at 101.6 ± 1%.

In the case of `C[C@@H]1O[C@@H](Oc2c(-c3ccc(O)c(O)c3)oc3cc(O)cc(O)c3c2=O)[C@H](O)[C@H](O)[C@H]1O` [Quercitrin], the “μ (% activation) ± σ” value is listed as 102 ± 2.4%.

Regarding `C[n+]1cc2c3c(ccc2c2ccc4cc5c(cc4c21)OCO5)OCO3` [Sanguinarine], the “μ (% activation) ± σ” value was found to be 91.1 ± 3.1%. On the same count and under the same terms, under `COc1cc(C[C@H]2C(=O)OC[C@@H]2Cc2ccc3c(c2)OCO3)cc(OC)c1OC` [Yatein] stands 100.7 ± 2.5%; under (−)-Argemonine, 102.6 ± 2.0%. The same measure, in the same setting: under Cycleanine stands 102.2 ± 1.9%.

The same assay, now with this note: in vitro screening; IRE1 activity of less than 80% = retained as IRE1 inhibitor.
Regarding `O=C(/C=C/c1ccc(O)c(O)c1)OC/C=C/c1ccccc1` [Cinnamyl caffeate, [(E)-3-phenylprop-2-enyl] (E)-3-(3,4-dihydroxyphenyl)prop-2-enoate], the “μ (% activation) ± σ” value came to 73.4 ± 1.7%. On to `COc1ccc2c(c1O)Oc1c(O)ccc3c1[C@H](C2)N(C)CC3` [Claviculine], for which the “μ (% activation) ± σ” value worked out at 100.3 ± 2.5%.

Turning to `COc1cc(/C=C/C(=O)CC(=O)/C=C/c2ccc(O)c(OC)c2)ccc1O` [Curcumine], the “μ (% activation) ± σ” value is on record as 177.3 ± 10.3%. On the same count and under the same terms, under `CC(C)=C/C=C/C(C)=C/[C@H]1CC[C@@H]2[C@@]3(C)CC[C@H](O)C(C)(C)[C@@H]3CC[C@@]2(C)[C@@]12COC(=O)C2` [Ebelin lactone] stands 102.5 ± 0.9%; under `Cc1cc(O)c2c(c1)C(=O)c1cc(O)cc(O)c1C2=O` [Emodin], 104.5 ± 3.1%; under `Oc1cc(O)c2c(c1)O[C@H](c1ccc(O)c(O)c1)[C@H](O)C2` [Epicatechin], 101.4 ± 0.4%. Same read-out and setting: next, `CC(C)=CCC[C@@H](C)[C@@H]1CC[C@]2(C)C3=C(CC[C@@]12C)[C@@]1(C)CC[C@H](O)C(C)(C)[C@@H]1CC3` [Euphol]: 105.3 ± 0.7%; `C[C@H]1C(=O)CC[C@@H]2[C@]1(C)CC[C@H]1[C@@]2(C)CC[C@@]2(C)[C@@H]3CC(C)(C)CC[C@]3(C)CC[C@]12C` [Friedelin]: 104.6 ± 0.7%; `CC(C)=CCc1c(O)cc2oc3c(CC=C(C)C)c(O)c(O)c(CC=C(C)C)c3c(=O)c2c1O` [Garcinon E]: 101.6 ± 3.9%. In the case of `CC(C)=CCc1c(O)c(CC=C(C)C)c2oc3c(O)ccc(O)c3c(=O)c2c1O` [Gartanin], the “μ (% activation) ± σ” value is on record as 95.1 ± 5.5%.

For the compound `CC1=C[C@H]2c3c(c(O)c(O)c4oc5cc(O)cc(O)c5c(=O)c34)[C@H](c3cc(O)c(O)c4oc5cc(O)cc(O)c5c(=O)c34)[C@H]2C(C)(C)C1` [Griffipavixanthone], the “μ (% activation) ± σ” value is recorded as 96.8 ± 1.3%.

In the case of `C=CCc1ccc(O)c(-c2ccc(O)c(CC=C)c2)c1` [Honokiol], the “μ (% activation) ± σ” value came to 93.9 ± 2%. Same read-out and setting: next, `C=CC(C)(C)c1c(OC)cc(O)c2c(=O)c3ccc(O)c(O)c3oc12` [Isocudraniaxanthone B]: 94.3 ± 0.9%; `O=C1C=CC(=O)c2c(O)cccc21` [Juglone, 5-hydroxy-1,4-naphthalenedione]: 43.5 ± 3.7%. As for `CCCC(=O)c1c(O)c(CC=C(C)C)c2oc(=O)cc(-c3ccccc3)c2c1O` [Mammea A/AC], the “μ (% activation) ± σ” value is reported as 102.4 ± 1.7%. Same read-out and setting: next, `O=C1C[C@@H](c2ccc(O)cc2)Oc2cc(O)cc(O)c21` [Naringenin]: 101.1 ± 1.2%; `COc1cccc2c1C(=O)c1nccc3cc4c(c-2c13)OCO4` [Oxostephanine, 15-methoxy-3,5-dioxa-11-azapentacyclo [10.7.1.0^2,6.0^8,20.0^14,19]icosa-(20),2(6),7,9,11,14(19),15,17-octaen-13-one]: 77.5 ± 0.9%; `O=C(CCc1ccc(O)cc1)c1c(O)cc(O)cc1O` [Phloretin]: 101.8 ± 1.7%. Still for that read-out and setting: next, `CC(=O)O[C@H]1C(=O)c2c(O)cc(O)cc2O[C@@H]1c1ccccc1` [Pinobanksine 3-O-acetate]: 100.3 ± 2.7%.

In the case of `O=C1c2c(O)cc(O)cc2O[C@H](c2ccccc2)[C@H]1O` [Pinobanksine], the “μ (% activation) ± σ” value amounted to 101.5 ± 0.8%. On the same count and under the same terms, next, `CC(C)=CCOC(=O)/C=C/c1ccc(O)c(O)c1` [Prenyl caffeate]: 102.4 ± 0.8%. Take `O=c1c(O)c(-c2ccc(O)c(O)c2)oc2cc(O)cc(O)c12` [Quercetin]: the “μ (% activation) ± σ” value came to 98.5 ± 1.4%.

Turning to `O=C(O)C1=C[C@@H](O)[C@@H](O)[C@H](O)C1` [Shikimic acid], the “μ (% activation) ± σ” value worked out at 102.0 ± 6.2%. As for `c1cc2c(c3c1C[C@H]1c4cc5c(cc4CCN1C3)OCO5)OCO2` [Stylopine], the “μ (% activation) ± σ” value was 101.4 ± 4.1%. Still for that read-out and setting: next, `COc1cc(C(=O)O)cc(OC)c1O` [Syringic acid]: 97.8 ± 3.1%; `CC1(C)C=Cc2c(cc3oc4ccc5c(c4c(=O)c3c2O)C=CC(C)(C)O5)O1` [Thwaitesixanthone]: 101.1 ± 2.1%.

Turning to `CC1=CC(=O)C(C(C)C)=CC1=O` [Thymoquinone], the “μ (% activation) ± σ” value worked out at 104.3 ± 2.2%.

For `COc1cc2c(cc1OC)[C@@H]1Cc3ccc(OC)c(OC)c3CN1CC2` [Tétrahydropalmatine], the “μ (% activation) ± σ” value is given as 101.8 ± 4.8%. As to `O=c1ccc2ccc(O)cc2o1` [Umbelliferone], the “μ (% activation) ± σ” value was 105.3 ± 2.3%.

Turning to `COc1c(O)cc2oc3cc(O)c(CC=C(C)C)c(O)c3c(=O)c2c1CC=C(C)C` [α-mangostin], the “μ (% activation) ± σ” value turned out to be 67.5 ± 0.2%.

`COc1cc2oc3cc(O)c(OC)c(CC=C(C)C)c3c(=O)c2c(O)c1CC=C(C)C` [β-mangostin]: the “μ (% activation) ± σ” value worked out at 100.3 ± 4.7%. On the same count and under the same terms, next, (-)-Curine: 100.0 ± 3.8%; (±)-Lindératine: 103.0 ± 2.1%. On the same count and under the same terms, under “(−)-monomethylester-15 dehydropinifolic acid” stands 103.8 ± 1.1%; under Anibacanine, 100.2 ± 3.6%; under Caledonixanthone K, 100.7 ± 2%. Same read-out and setting: under Mammea A/AA cycloF stands 93.8 ± 1.1%; under Pseudoanibacanine, 100.0 ± 3.7%; under Steponine, 103.4 ± 1.3%. Turning to Tetraprenyltoluquinone, the “μ (% activation) ± σ” value is on record as 100.8 ± 1.5%.

Still in this assay, the particulars now being: read-out: IRE1 IC50.
As to `O=C(/C=C/c1ccc(O)c(O)c1)OC/C=C/c1ccccc1` [Cinnamyl caffeate, [(E)-3-phenylprop-2-enyl] (E)-3-(3,4-dihydroxyphenyl)prop-2-enoate], the IC50 was determined as 21.6 µM.

Turning to demethylrubraxanthone, the IC50 was found to be 6.5 ± 0.4 µM.
